In US20260272908A1 (VANDERBILT UNIVERSITY, priority 2023, published 2026):
Entries after “also recorded” stand apart in the source; their conditions may differ.

Key:
phospho-ERK (p-ERK) = assay: Western blot for phospho-ERK in Meta3 and Meta4 organoids; format: cell-based, mouse
Experimental: (§1) FIG. 3C-3D show the Western blot analysis for p-STAT3 and p-ERK in Meta3 and Meta4 organoids (FIG. 3C) and ratios of p-STAT3/total STAT3 and p-ERK/total ERK (FIG. 3D). […] FIG. 3F-3G show phase-contrast images of Meta4 organoids treated with DMSO, Pyr (100 nM), STAT3-IN-1 (1 μM), Stattic (2 μM), and Cryptotanshinone (CPT) (5 μM) for 3 days (FIG. 3F), and quantitation of organoid diameters before and after treatment (FIG. 3G). FIG. 3H-3I show phase-contrast images of Meta4 organoids treated with DMSO, trametinib (Tra), STAT3-IN-1, combination of Tra and STAT3-IN-1, and Pyr, for 3 days (FIG. 3H), and quantitation of organoid diameters before and after treatment (FIG. 3I). FIG. 3J-3K show western blot for p-STAT3 and p-ERK after treatment of Tra, Pyr, and SSTC3 (FIG. 3J) and ratios of p-STAT3/t-STAT3 and p-ERK/t-ERK (FIG. 3K). […] Relative quantification of each gene expression level was normalized to GAPDH gene expression. Shading scale represents the mRNA expression values. FIG. 3M show representative mRNA of Pim-1 and Cyclin-B1 after treatment. Mean±standard deviation. […] Scale bar=500 μM.
(§2) Total proteins were extracted from organoids using radioimmunoprecipitation assay buffer (10 mmol/L Tris-HC, pH 7.2, 150 mmol/L NaCl, 5 mmol/L EDTA, 0.1% sodium dodecyl sulfate, 1.0% Triton X-100, 1% deoxycholate) with protease inhibitors. The protein concentration was measured The Bio-Rad Protein Assay (Bio-Rad Laboratories, Hercules, CA). 5 to 10 μg of total protein was loaded onto 12.5% or 10% sodium dodecyl sulfate/polyacrylamide gel electrophoresis (PAGE) and transferred onto polyvinylidene difluoride membranes (Millipore, Billerica, MA). […] After washes with TBS-T, chemiluminescence was detected with an Amersham Imager 680 instrument (GE Healthcare) after 1 mL of the SuperSignal West Femto Maximum Sensitivity Substrate (ThermoFisher) was applied to the membranes.

wild-type mice = assay: Histopathology of major organs in wild-type mice; format: in vivo, mouse; conditions: 4 mg/L in drinking water, 2 weeks
Experimental: Hematoxylin and eosin images were obtained from wild-type mice treated with either dimethyl sulfoxide (DMSO) or Pyr (4 mg/L in drinking water) for a duration of 2 weeks. Scale bar=100 μm.
One or two weeks after either DMSO or pyrvinium treatment, gastric mucosa in each group of mice was examined.

Wnt-target genes = assay: Real-time PCR for Wnt-target genes in Meta4 organoids; format: cell-based, mouse; conditions: pyrvinium 100 nM
Experimental: Mean±SD. One-way ANOVA with Tukey's multiple comparisons.
(§3) Total RNAs were extracted from Meta3 or Meta4 organoids using the Trizol (Invitrogen) reagent. cDNAs were synthesized using iScript gDNA clear cDNA synthesis kit (Bio-Rad) and RT-PCR was performed using SsoAdvanced™ Universal SYBR Green supermix (Bio-Rad) and a CFX96 Real-Time PCR Detection System (Bio-Rad). GAPDH, a house keeping gene, was used to normalize gene expression levels. All reactions were performed in triplicate and relative gene expression levels were obtained by the comparative ΔΔCt method using CFX Maestro software (Bio-Rad).

CD133 and CD166 = assay: qRT-PCR of dysplastic stem cell markers in Meta4 organoids; format: cell-based, mouse; conditions: pyrvinium-treated vs DMSO
Experimental: FIG. 4D-4E show lusters of dysplastic stem cells (DSCs) differentiated cells or damaged cells in a superimposed UMAP plot (FIG. 4D) and their proportions in DMSO-treated and Pyr-treated Meta4 samples (FIG. 4E).
as §3

Meta4 organoids [1] = conditions: pyrvinium, 1 day
Meta3 organoids = assay: Meta3 metaplastic organoid growth and survival (organoid diameter, phase-contrast); format: cell-based, mouse; conditions: trametinib 1 μM, pyrvinium 100 nM, 3 days
Experimental: (§4) All experiments were repeated at least three times.
(§5) All experiments were performed at least in triplicate.

STAT3-target genes = assay: Quantitative real time-PCR for STAT3 target genes in Meta4 organoids; format: cell-based, mouse; conditions: pyrvinium 100 nM
Experimental: as §1
Two-tailed Mann-Whitney test.

[2] = test system: STAT pathway / STAT3^Y705 phosphorylation; assay: Phospho-antibody array in Meta3 and Meta4 organoids; format: cell-based, mouse; conditions: pyrvinium, 3 days
Excerpt: Shading scale represents standardized log 2(FDR) values. […] Each square represents the signal ratio of the antibody against the unphosphorylated form of the site. FIG. 2E schematically illustrates how the STAT3 and DPPs in RAS/MAPK pathway is affected by Pyr treatment in precancerous organoids.
The top 10 protein candidates were selected, including p-MYC^T358, p-PKCtheta^T538, p-C-Raf^S43 p-STAT3^Y705, p-Pyk2^T580, p-Histone H3.1^S10, p-CREB^T100, p-Pyk2^T881, p-SRF^S77, and p-ERK1/2(p44/42)^T202(FIG. 2C-2D). As the organoids were derived from Mist1-Kras mice, it is not surprising that many proteins on the list are directly related to MAPK and PKC signaling pathways, with the exception of STAT3 (FIG. 2E).

Meta4 organoids [3] = assay: Meta4 dysplastic organoid growth and cell death (organoid diameter, phase-contrast, H&E, live/dead staining); format: cell-based, mouse; conditions: pyrvinium 100 nM, SSTC3 0.2-1 μM, STAT3-IN-1 1 μM, Sttatic 2 μM, 3 days
Experimental: as §4, §5

phospho-STAT3 (p-STAT3) = assay: Western blot for phospho-STAT3 in Meta3 and Meta4 organoids; format: cell-based, mouse
Experimental: as §1, §2

## Cc1cc(/C=C/c2ccc3cc(N(C)C)ccc3[n+]2C)c(C)n1-c1ccccc1 [pyrvinium]
phospho-ERK (p-ERK); Meta3
  phosphorylation of ERK: reduced phosphorylation
phospho-ERK (p-ERK); Meta4, 3 days
  p-ERK levels: significant decrease
wild-type mice
  histopathology of major organs (stomach, esophagus, liver, kidney, heart, lung, spleen): did not induce any noticeable histopathological abnormalities; also recorded: unaffected
Wnt-target genes; 6 or 24 hours
  Wnt-target gene expression: not downregulated
Wnt-target genes; 24 hours after treatment
  expression of Axin2, Cdca4, Rnf43, and Znrf3: increased
CD133 and CD166
  CD133 and CD166 gene expression: decreases
Meta4 organoids [1]
  DSC (dysplastic stem cell) subpopulation: not observed
  STAT3-target genes Fos, Fosb, and Jun: downregulated
  binding and transcription regulator activities (PANTHER gene ontology): decreased
  cells damaged and mostly differentiated cells among treated cells: over 73.9%
  damage-related genes Dusp4, Ddit3 and Areg: upregulated
Meta3 organoids
  organoid size compared to control organoids treated with DMSO: significant reduction in size
STAT3-target genes
  expression of several STAT3-target genes, including Cyclin B1 and Pim-1: downregulated
[2]; Meta3 and Meta4
  most prominent effect on protein phosphorylation (phospho-array): dephosphorylation of proteins related to the STAT pathway
[2]
  STAT3^Y705 phosphorylation (phospho-array): loss
Meta4 organoids [3]
  organoid size / growth: reduction in organoid size
phospho-STAT3 (p-STAT3); Meta3
  phosphorylation of STAT3^Y705: reduced phosphorylation
phospho-STAT3 (p-STAT3); Meta4, 3 days
  phosphorylation of STAT3^Y705: significant reduction
